These are literature values, as cited in patent US7524881B2, “Production of Δ 9 tetrahydrocannabinol” (Resolution Chemicals Limited, priority 2002, dated 2009).

For this data set the following is noted: for psychomimetic activity: qualitative background statement.

Each structure is given as a SMILES string.

`CCCCCc1cc2c(c(O)c1C(=O)O)[C@@H]1C=C(C)CC[C@H]1C(C)(C)O2` [THCA-B, Δ9-THC carboxylic acid]: the psychomimetic activity result was “psychomimetically inactive”. Consider `C=C(C)[C@@H]1CCC(C)=C[C@H]1c1c(O)cc(CCCCC)cc1O` [Cannabidiol (CBD), cannabidiol], for which the psychomimetic activity entry is recorded as “little activity”. As to `CCCCCc1cc(O)c2c(c1)OC(C)(C)[C@@H]1CCC(C)=C[C@@H]21` [Δ9-THC, Delta 9 tetrahydrocannabinol], the “psychomimetic activity relative to Δ8-THC” value (compared with Δ8-THC) is recorded as 20 times. For `CCCCCc1cc2c(c(O)c1C(=O)O)[C@@H]1C=C(C)CC[C@H]1C(C)(C)O2` [THCA-A, Δ9-THC carboxylic acid], the psychomimetic activity entry was “psychomimetically inactive”.
